Values after ≈ are worked out from the molar mass of the structure shown. Values joined by “and” are separate entries in the source; they are usually repeats but may differ in a detail not shown here. Equal values may be shown once. Read-outs that look alike come from different tables or passages of the source. Residues, ends and D or L forms follow the SMILES beside them.
Columns and labels:
MRSA USA 300 = assay type: cell-based, Staphylococcus aureus
From the text: (§1) Bacteria were cultivated in Luria-Bertani (LB) broth.

MRSA ATCC 43300 = assay type: cell-based, Staphylococcus aureus; settings: ATCC 43300
From the text: as §1

MRSA 3393 = assay type: cell-based, Staphylococcus aureus; settings: 3393
From the text: as §1

[1] = tested on: K. pneumoniae ATCC 700603; assay type: cell-based, Klebsiella pneumoniae
From the text: as §1

K. pneumoniae 3026 = assay type: cell-based, Klebsiella pneumoniae
From the text: as §1

E. coli S = assay type: cell-based, Escherichia coli
From the text: as §1

E. coli ATCC 25922 = assay type: cell-based, Escherichia coli
From the text: as §1

[2] = tested on: all tested bacterial strains; settings: range over all strains
From the text: The bacterial strains used in this study included the Gram-positive bacteria methicillin resistant Staphylococcus aureus (MRSA) (MRSA ATCC 43300 and 2 clinically isolated strains presented as MRSA USA 300 and MRSA 3393), Gram-negative bacteria Escherichia coli (E. coli ATCC 25922, and 1 clinically isolated strain presented as E. coli S), Klebsiella pneumoniae (K. pneumoniae ATCC 700603, and 1 clinically isolated strain presented as K. pneumoniae 3026), and Acinetobacter baumannii (2 clinically isolated strains presented as A. baumannii 1318 and A. baumannii 1337). Bacteria were cultivated in Luria-Bertani (LB) broth.
The Clinical and Laboratory Standards Institute (CLSI)-defined broth microdilution testing method (M07, 11th edition, 2018) was used to determine MICs for peptides. Briefly, the concentrations of the peptides and ciprofloxacin in the assay wells ranged from 100 μM to 0.01 μM as a 11-point dose response plated as a 2-fold dilution series across the wells of the plate in duplicate for each independent biological replicate. Bacterial susceptibility assays were performed in Cation-Adjusted Mueller Hinton Broth (CAMHB), and using a final cell density of 5 × 10^6 CFU/mL for bacteria[36]. Final assay volumes were 100 μL per well with MICs determined by measuring absorbance at 595 nm with a microplate reader following 18–20 h incubation at 37 °C. […]

HEK293T cells = experiment: MTT cytotoxicity assay; assay type: cell-based, human; settings: for percent cell viability: HEK293T
Method: (§2) To determine the cytotoxicity of the peptides, we used the MTT (3-(4,5)-dimethylthiahiazo (-z-y1)-3,5-di-phenytetrazoliumromide) dye reduction assay against HEK293T cells. In brief, the 100 μL of cells in 96-well plate were incubated for 24 h at 37 °C, 5% CO2, and then peptide solutions (concentrations ranging from 100 to 0.39 μM) were added and further incubated for 72 h. MTT solution (5 mg/mL) was added and further incubated for 4 h. After incubation, the precipitated MTT formazan crystal was dissolved by addition of dimethyl sulfoxide (DMSO). […]

MTT cytotoxicity assay = assay type: cell-based, human; settings: human
Method: as §2

sheep red blood cells = experiment: Hemolysis assay
Method: To evaluate the hemolysis effects of peptides, red blood hemolysis was performed as described with minimum modifications. Sterile defibrated sheep blood was purchased from Guangzhou Hongquan Biotechnology Co., LTD. Blood cells were adjusted to 2 × 10^9 cells/mL in phosphate-buffered saline (PBS, pH 7.4). In total, 98 μL sheep red blood cell suspension was incubated with 2 μL of peptides at different concentrations ranging from 3.13 to 100 µM. After incubation for 1 h at 37 °C, the cells were centrifuged and the absorbance of the supernatant was measured at 450 nm. The value for “zero hemolysis” was determined using sterile PBS, while 100% hemolysis was established using 1.5% (v/v) Triton X-100. Hemolysis of testing sample was calculated as the percentage of Triton X-100-induced hemolysis.

A. baumannii 1318 = assay type: cell-based, Acinetobacter baumannii
From the text: as §1

A. baumannii 1337 = assay type: cell-based, Acinetobacter baumannii
From the text: as §1

[3] = tested on: Gram-negative bacterial strains; assay type: cell-based; settings: range over the strains
From the text: as §1

MRSA = assay type: cell-based, Staphylococcus aureus; settings: range over the MRSA strains
From the text: as §1

[4] = HEK293T cells, OD450, cytotoxicity (Fig 2a), replicates

Structure (SMILES): CC[C@H](C)[C@H](NC(=O)[C@H](CCCNC(=N)N)NC(=O)[C@H](CCCNC(=N)N)NC(=O)[C@H](CC(C)C)NC(=O)[C@H](Cc1ccccc1)NC(=O)[C@@H](N)CCCNC(=N)N)C(=O)N[C@@H](Cc1ccccc1)C(=O)N[C@@H](CCCCN)C(=O)N[C@@H](Cc1ccccc1)C(=O)N[C@@H](Cc1ccccc1)C(=O)N[C@@H](Cc1ccccc1)C(N)=O [HT5] (H-RFLRRIFKFFF-NH2)
- MIC Gram+ MRSA USA 300 (MRSA USA 300): 3.13 µM (≈ 4.93 µg/mL)
- MIC Gram+ MRSA ATCC 43300 (MRSA ATCC 43300): 3.13 µM (≈ 4.93 µg/mL)
- MIC Gram+ MRSA 3393 (MRSA 3393): 3.13 µM (≈ 4.93 µg/mL)
- MIC Gram- K. p ATCC 700603 [1]: 12.5 µM (≈ 19.7 µg/mL)
- MIC Gram- K. p 3026 (K. pneumoniae 3026): 12.5 µM (≈ 19.7 µg/mL)
- MIC Gram- E. coli S (E. coli S): 6.25 µM (≈ 9.85 µg/mL)
- MIC Gram- E. coli ATCC 25922 (E. coli ATCC 25922): 6.25 µM (≈ 9.85 µg/mL)
- MICs against all tested bacterial strains [2]: 3.13 to 12.5 µM
- toxicity / cytotoxicity against HEK293T cells (in words) (HEK293T cells): high toxicity
- IC50 at 72 h (MTT cytotoxicity assay): 2.3 µM
- viability at 72 h, 0.39 µM (MTT cytotoxicity assay; [4]): 85.5%
- viability at 72 h, 0.78 µM (MTT cytotoxicity assay; [4]): 79.4%
- viability at 72 h, 1.57 µM (MTT cytotoxicity assay; [4]): 62.7%
- viability at 72 h, 3.13 µM (MTT cytotoxicity assay; [4]): 21%
- viability at 72 h, 6.25 µM (MTT cytotoxicity assay; [4]): 22.6%
- viability at 72 h, 12.5 µM (MTT cytotoxicity assay; [4]): 8.57%
- viability at 72 h, 25 µM (MTT cytotoxicity assay; [4]): 10.4%
- HC10 (concentration inducing 10% hemolysis) (sheep red blood cells; red cells of sheep, 1 h): 12.5 µM
- MIC Gram- A. b 1318 (A. baumannii 1318): 3.13 µM (≈ 4.93 µg/mL)
- MIC Gram- A. b 1337 (A. baumannii 1337): 3.13 µM (≈ 4.93 µg/mL)

Structure (SMILES): CC[C@H](C)[C@H](NC(=O)[C@H](CCCNC(=N)N)NC(=O)[C@H](CO)NC(=O)[C@H](CC(C)C)NC(=O)[C@H](Cc1ccccc1)NC(=O)[C@H](Cc1ccccc1)NC(=O)[C@@H](N)Cc1ccccc1)C(=O)N[C@@H](Cc1ccccc1)C(N)=O [SHf] (H-FFFLSRIF-NH2; N-terminus assumed)
- MICs against the tested Gram-negative bacterial strains [3]: > 100 µM
- MICs against MRSA (MRSA): 50 to 100 µM
- percent cell viability (HEK293T cells; 0.39 µM): 94.1313 and 97.2791
- percent cell viability (HEK293T cells; 0.78 µM): 95.9839 and 98.206
- percent cell viability (HEK293T cells; 1.57 µM): 94.1313 and 96.7238
- percent cell viability (HEK293T cells; 3.13 µM): 98.2056
- percent cell viability (HEK293T cells; 6.25 µM): 98.9467 and 92.2795
- percent cell viability (HEK293T cells; 12.5 µM): 99.6874 and 99.3163
- percent cell viability (HEK293T cells; 25 µM): 98.9463 and 99.3171
- percent cell viability (HEK293T cells; 50 µM): 91.54 and 92.6507
- percent cell viability (HEK293T cells; 100 µM): 21.5425 and 18.5796
- viability at 72 h, 0.39 µM (MTT cytotoxicity assay; HEK293T cells, HEK293T, 0.39 µM, read-out: OD450, cytotoxicity (Fig 2a), replicates): 99%
- viability at 72 h, 0.78 µM (MTT cytotoxicity assay; HEK293T cells, HEK293T, 0.78 µM, read-out: OD450, cytotoxicity (Fig 2a), replicates): 90.4%
- viability at 72 h, 1.57 µM (MTT cytotoxicity assay; HEK293T cells, HEK293T, 1.57 µM, read-out: OD450, cytotoxicity (Fig 2a), replicates): 97.8%
- viability at 72 h, 3.13 µM (MTT cytotoxicity assay; HEK293T cells, HEK293T, 3.13 µM, read-out: OD450, cytotoxicity (Fig 2a), replicates): 100%
- viability at 72 h, 6.25 µM (MTT cytotoxicity assay; HEK293T cells, HEK293T, 6.25 µM, read-out: OD450, cytotoxicity (Fig 2a), replicates): 92.7%
- viability at 72 h, 12.5 µM (MTT cytotoxicity assay; HEK293T cells, HEK293T, 12.5 µM, read-out: OD450, cytotoxicity (Fig 2a), replicates): 93.4%
- viability at 72 h, 25 µM (MTT cytotoxicity assay; HEK293T cells, HEK293T, 25 µM, read-out: OD450, cytotoxicity (Fig 2a), replicates): 94.9%
- viability at 72 h, 50 µM (MTT cytotoxicity assay; HEK293T cells, HEK293T, 50 µM, read-out: OD450, cytotoxicity (Fig 2a), replicates): 92.3%
- viability at 72 h, 100 µM (MTT cytotoxicity assay; HEK293T cells, HEK293T, 100 µM, read-out: OD450, cytotoxicity (Fig 2a), replicates): 27.1%
- IC50 at 72 h (MTT cytotoxicity assay; HEK293T, MTT, 72 h, read-out: IC50, mammalian cell cytotoxicity): 59 µM
- OD450, hemolysis (Fig 2b), replicates (sheep red blood cells; 3.13 µM): 0.01725 and 0.01686 and 0.01568 and 0.01738 and 0.01699 and 0.0158
- OD450, hemolysis (Fig 2b), replicates (sheep red blood cells; 6.25 µM): 0.01882 and 0.01529 and 0.01725 and 0.01896 and 0.01541 and 0.01738
- OD450, hemolysis (Fig 2b), replicates (sheep red blood cells; 12.5 µM): 0.01725 and 0.01803 and 0.01764 and 0.01738 and 0.01817 and 0.01777
- OD450, hemolysis (Fig 2b), replicates (sheep red blood cells; 25 µM): 0.01921 (2×) and 0.01764 and 0.01936 (2×) and 0.01777
- OD450, hemolysis (Fig 2b), replicates (sheep red blood cells; 50 µM): 0.02038 and 0.02156 and 0.01921 and 0.02054 and 0.02173 and 0.01936
- OD450, hemolysis (Fig 2b), replicates (sheep red blood cells; 100 µM): 0.01999 and 0.02234 and 0.02195 and 0.02014 and 0.02252 and 0.02212
- hemolytic activity (in words) (sheep red blood cells; sheep red blood cells, 3.13–100 μM): did not present hemolytic activity
- HC10 (concentration inducing 10% hemolysis) (sheep red blood cells; sheep red blood cells, 1 h at 37 °C): > 100.0 µM
